According to publication PMC12391391, “The balance between B55α and Greatwall expression levels predicts sensitivity to Greatwall inhibition in cancer cells” (Nature Communications, 2025):
Read-outs that look alike come from different tables or passages of the source.

How the values were obtained:
[1] = target: T1, Greatwall kinase (GWL, MASTL) (Homo sapiens, UniProt Q96GX5, K72M); experiment: HTRF kinase assay with purified full-length GWL (K72M) and ENSA; type: biochemical
T1 construct: full-length
T1 sequence (Q96GX5 1-879 K72M): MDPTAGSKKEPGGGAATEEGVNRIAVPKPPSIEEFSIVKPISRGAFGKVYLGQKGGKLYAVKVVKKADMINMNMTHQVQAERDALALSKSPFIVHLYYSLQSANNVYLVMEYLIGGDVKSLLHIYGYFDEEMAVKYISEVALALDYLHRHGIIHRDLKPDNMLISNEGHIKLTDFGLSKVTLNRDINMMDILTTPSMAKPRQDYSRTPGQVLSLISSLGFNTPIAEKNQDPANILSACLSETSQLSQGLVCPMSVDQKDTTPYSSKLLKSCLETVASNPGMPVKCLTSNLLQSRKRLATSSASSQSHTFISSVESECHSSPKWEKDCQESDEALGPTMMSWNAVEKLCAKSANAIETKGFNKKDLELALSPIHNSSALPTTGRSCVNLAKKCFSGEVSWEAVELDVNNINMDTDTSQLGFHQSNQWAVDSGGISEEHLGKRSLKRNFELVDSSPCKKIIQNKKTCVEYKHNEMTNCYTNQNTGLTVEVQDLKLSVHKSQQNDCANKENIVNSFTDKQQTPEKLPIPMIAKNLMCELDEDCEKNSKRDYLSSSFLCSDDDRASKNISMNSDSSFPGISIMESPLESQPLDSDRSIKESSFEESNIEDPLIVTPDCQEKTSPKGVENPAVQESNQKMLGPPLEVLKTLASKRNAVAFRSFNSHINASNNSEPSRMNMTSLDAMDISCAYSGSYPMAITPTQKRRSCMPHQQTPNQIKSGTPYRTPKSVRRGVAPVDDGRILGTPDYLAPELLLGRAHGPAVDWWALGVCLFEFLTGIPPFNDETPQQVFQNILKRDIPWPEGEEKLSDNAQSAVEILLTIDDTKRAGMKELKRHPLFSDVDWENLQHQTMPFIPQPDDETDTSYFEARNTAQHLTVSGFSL

in vitro [2] = experiment: in vitro; design: intrinsic clearance in human microsomes; conditions: liver microsomes, human liver microsomes
Text: (§1) We selected compound 1 as the lead exemplar of cluster 3 and leveraged it as a foundation for subsequent drug development (Fig. 1a). Structure-activity relationship studies and pharmacokinetic profiling produced several derivative molecules, of which compound 21 provided the best combination of outstanding inhibitory potential, low clearance in mouse microsomes and acceptable solubility (Fig. 1a–c and Supplementary Tables 1–4). […] This assessment was supported by structural modelling of the interaction between compound 21 and the active site of GWL (Fig. 1d). In further support of its GWL-targeting properties, compound 21 diminished the phosphorylation of the canonical GWL substrate ENSA(S67) in Xenopus laevis cytostatic factor (CSF) egg extract (Supplementary Fig. 2). Having satisfied the criteria of prospective GWL inhibitor, the racemic compound 21 was registered as UOS-00054604 and, for the remainder of the manuscript, is referred to as C-604.

CDK1/cyclinB [3] = target: T2, CDK1/cyclinB (Homo sapiens, UniProt P06493); experiment: biochemical; design: CDK1/cyclin B and off-target kinase inhibition assay; conditions: read-out: off-target pIC50 (converted)
physchem = experiment: physchem; design: aqueous solubility at pH 7.0; conditions: pH 7.0; buffer pH 7.0; aqueous buffer pH 7.0
Text: as §1

Syk = Syk (Homo sapiens, UniProt P43405); experiment: biochemical; design: CDK1/cyclin B and off-target kinase inhibition assay; conditions: read-out: off-target pIC50 (converted)
CDK1/cyclinB [4] = target: T2, CDK1/cyclinB; experiment: biochemical; design: CDK1/cyclin B and off-target kinase inhibition assay
in vitro [5] = experiment: in vitro; design: intrinsic clearance in mouse microsomes; conditions: liver microsomes; mouse liver microsomes
Text: as §1

hERG = target: T3, hERG (Homo sapiens, UniProt Q12809); experiment: cell-based; design: hERG channel inhibition
T3 construct: gene KCNH2
Text: as §1

[6] = target: T1, Greatwall kinase (GWL, MASTL); experiment: biochemical; design: HTRF kinase assay with full-length GWL and ENSA, inhibition
Text: To discover small molecules interfering with GWL activity, we screened a kinase-focused subset of the AstraZeneca compound collection in the full-length hyperactive GWL (K72M) homogeneous time-resolved fluorescence (HTRF) assay. The kinase screening collection comprised around 40,000 samples of interest, augmented by exemplars of kinase hinge-binding motifs, literature-reported kinase actives and screening catalogue purchases (mean MW ≈ 360, mean clogP ≈ 2.8), aiming to achieve as wide a coverage of the kinome as possible. Initially, we selected potential active molecules with a z-score ≤ −5 (equivalent to approximately 25% inhibition or better) and performed compound clustering, followed by near-neighbour testing and determination of relevant median inhibitory concentration (IC50) values. Subsequent re-clustering based on GWL inhibitory potency, Cdk1 selectivity, broad kinome selectivity and additional known factors influencing drug developability, such as molecular weight, lipophilicity and the number of hydrogen donors and acceptors, generated six prioritised compound clusters (Supplementary Fig. 1a, b). […] Despite the favourable kinase selectivity profile of cluster 5, we considered this series less attractive due to the limited number of compounds (n = 5) and suboptimal molecular properties for a hit, such as higher lipophilicity, lower binding efficiency (as indicated by ligand-lipophilic efficiency, LLE) and greater molecular weight (Supplementary Fig. 1a, b). […] We selected compound 1 as the lead exemplar of cluster 3 and leveraged it as a foundation for subsequent drug development (Fig. 1a). Structure-activity relationship studies and pharmacokinetic profiling produced several derivative molecules, of which compound 21 provided the best combination of outstanding inhibitory potential, low clearance in mouse microsomes and acceptable solubility (Fig. 1a–c and Supplementary Tables 1–4). […] This assessment was supported by structural modelling of the interaction between compound 21 and the active site of GWL (Fig. 1d). In further support of its GWL-targeting properties, compound 21 diminished the phosphorylation of the canonical GWL substrate ENSA(S67) in Xenopus laevis cytostatic factor (CSF) egg extract (Supplementary Fig. 2). Having satisfied the criteria of prospective GWL inhibitor, the racemic compound 21 was registered as UOS-00054604 and, for the remainder of the manuscript, is referred to as C-604.  Fig. 1 Development and characterisation of the GWL kinase inhibitor C-604. a Chemical structure of the lead exemplar compound 21 and the general synthetic route towards the preparation of pyrrolopyrazine GWL inhibitors. (a) for 4a, (i) NaH, SEM-Cl, DMF, 0 °C, 4 h; (ii) Arnold’s reagent, CHCl3, 60 °C, 20 h; (iii) NaClO2, KH2PO4, NH2SO3H, 1,4-dioxane/water, 0 °C to rt, 2 h, 35% (three steps); for 4b, (i) hexamine, TFA, MW, 80 °C, 20 min; (ii) NaH, SEM-Cl, DMF, 0 °C to rt, 16 h; (iii) NaClO2, KH2PO4, NH2SO3H, 1,4-dioxane/water, 0 °C to rt, 1.5 h, 14% (three steps); (b) 2 M methylamine in THF, T3P, pyridine, EtOAc, 60 °C, 2-4 h, 89-97%; (c) 2-(pyrrolidin-1-yl)ethanol, CuI, L-proline, K2CO3, DMSO, 100 °C, 16 h, 48%; (d) TFA, DCM, rt, 16 h then ethylenediamine, DCM, rt, 3-6 h, 29-92%; (e) 1-methylpiperazine, CuI, L-proline, K2CO3, DMSO, 100 °C, 16 h, 77%; (f) boronate ester, Pd(dppf)Cl2 · DCM, 1,4-dioxane/water, MW, 120 °C, 30 min, 43-81%; (g) boronate ester, Pd(dppf)Cl2 · DCM, 1,4-dioxane/water, MW, 120 °C, 30 min, 56%; (h) amine, K2CO3, DMF, 95 °C, 1 h, 32-67%. b Chemical structure of the lead compound 21 (C-604). c Dose-dependent effect of compound 21 (C-604) on the in vitro GWL activity measured by an HTRF assay utilising purified full-length GWL (K72M) and ENSA. Per cent (%) inhibition was determined from fluorescence intensity values normalised to the signal measured in the control enzyme-free reaction. […]

T2 sequence (P06493 whole entry): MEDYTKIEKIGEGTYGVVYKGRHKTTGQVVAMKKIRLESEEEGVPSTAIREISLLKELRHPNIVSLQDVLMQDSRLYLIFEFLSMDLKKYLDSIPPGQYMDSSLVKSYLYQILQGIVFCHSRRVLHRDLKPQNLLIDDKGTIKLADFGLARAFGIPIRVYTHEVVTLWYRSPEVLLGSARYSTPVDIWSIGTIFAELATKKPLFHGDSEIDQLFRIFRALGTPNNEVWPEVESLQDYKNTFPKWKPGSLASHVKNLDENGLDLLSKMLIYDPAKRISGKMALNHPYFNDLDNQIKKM
T2 sequence (P14635 whole entry partner): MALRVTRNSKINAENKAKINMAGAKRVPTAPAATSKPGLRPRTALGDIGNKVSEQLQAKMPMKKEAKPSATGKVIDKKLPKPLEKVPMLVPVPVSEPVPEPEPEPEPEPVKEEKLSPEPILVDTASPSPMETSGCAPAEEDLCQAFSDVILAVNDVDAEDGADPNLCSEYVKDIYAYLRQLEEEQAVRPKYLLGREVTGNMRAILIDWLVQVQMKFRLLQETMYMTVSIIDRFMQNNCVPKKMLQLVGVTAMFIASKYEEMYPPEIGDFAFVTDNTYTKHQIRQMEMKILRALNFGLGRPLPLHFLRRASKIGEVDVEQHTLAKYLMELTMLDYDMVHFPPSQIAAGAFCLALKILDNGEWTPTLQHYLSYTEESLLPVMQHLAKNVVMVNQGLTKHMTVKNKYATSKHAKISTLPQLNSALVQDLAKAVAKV
T3 sequence (Q12809 whole entry): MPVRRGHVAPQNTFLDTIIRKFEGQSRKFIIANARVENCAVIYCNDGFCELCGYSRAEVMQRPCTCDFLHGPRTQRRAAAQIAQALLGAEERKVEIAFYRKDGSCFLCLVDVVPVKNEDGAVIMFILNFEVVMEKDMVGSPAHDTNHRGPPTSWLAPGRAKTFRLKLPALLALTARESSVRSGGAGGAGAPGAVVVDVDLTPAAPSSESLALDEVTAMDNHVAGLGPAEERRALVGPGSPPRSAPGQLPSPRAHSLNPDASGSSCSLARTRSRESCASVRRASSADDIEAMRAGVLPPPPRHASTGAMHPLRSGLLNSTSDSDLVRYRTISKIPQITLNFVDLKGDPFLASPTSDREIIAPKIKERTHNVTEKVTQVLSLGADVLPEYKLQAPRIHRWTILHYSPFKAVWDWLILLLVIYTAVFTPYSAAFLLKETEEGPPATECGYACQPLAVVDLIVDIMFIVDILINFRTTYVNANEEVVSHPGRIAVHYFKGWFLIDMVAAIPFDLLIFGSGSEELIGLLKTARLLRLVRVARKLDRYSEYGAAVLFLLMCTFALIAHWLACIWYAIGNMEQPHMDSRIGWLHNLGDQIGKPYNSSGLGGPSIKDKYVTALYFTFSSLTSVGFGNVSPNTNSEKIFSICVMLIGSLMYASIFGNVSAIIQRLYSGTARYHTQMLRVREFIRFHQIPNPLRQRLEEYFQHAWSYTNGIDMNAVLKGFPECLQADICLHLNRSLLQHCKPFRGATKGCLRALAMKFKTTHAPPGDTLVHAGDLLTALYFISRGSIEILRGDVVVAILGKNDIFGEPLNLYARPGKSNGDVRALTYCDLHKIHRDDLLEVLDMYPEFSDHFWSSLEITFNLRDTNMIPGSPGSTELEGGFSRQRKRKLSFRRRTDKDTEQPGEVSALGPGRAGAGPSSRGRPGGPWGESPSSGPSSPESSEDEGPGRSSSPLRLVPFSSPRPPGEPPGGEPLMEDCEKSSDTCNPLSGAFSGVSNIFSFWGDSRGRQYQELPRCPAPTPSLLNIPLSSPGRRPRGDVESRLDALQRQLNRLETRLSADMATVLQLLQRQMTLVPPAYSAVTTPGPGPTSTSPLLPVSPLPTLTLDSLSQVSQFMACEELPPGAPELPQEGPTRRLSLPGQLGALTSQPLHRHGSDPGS

Row | SMILES | microsomal CLint (in vitro [5]) [µL/min/mg] | IC50 [6] [nM] | further results
1 | CNC(=O)c1c[nH]c2ncc(-c3ccc(OCCN4CC[C@H](c5ccccc5)C4)cc3)nc12 [21 (R), compound 21, R stereoisomer] | – | – | IC50 [1]: 13.3 ± 6.4 nM
2 | CNC(=O)c1c[nH]c2ncc(-c3ccc(OCCN4CC[C@@H](c5ccccc5)C4)cc3)nc12 [21 (S), compound 21, S stereoisomer] | – | – | IC50 [1]: 10.9 ± 2 nM
3 | CNC(=O)c1c[nH]c2ncc(-c3cn(C)c4ccccc34)nc12 [compound 1, 1] | 196 | – | microsomal CLint (in vitro [2]; read-out: Cl (human)): 147 µL/min/mg; microsomal CLint (in vitro [2]; read-out: hMic Clint): 45 µL/min/mg; IC50 (CDK1/cyclinB [3]): 3160 nM; solubility (physchem): 15 µM; IC50 (Syk): 25.1 nM; IC50 (CDK1/cyclinB [4]): 1480 nM; IC50 (hERG): > 30000 nM; IC50 ([6]; read-out: K72MGWL HTRF pIC50 (converted)): 100 nM
4 | CNC(=O)c1c[nH]c2ncc(OCCN3CCCC3)nc12 [compound 6, 6] | – | 5880 | –
5 | CNC(=O)c1c[nH]c2ncc(N3CCN(C)CC3)nc12 [compound 7, 7] | – | 4240 | –
6 | CNC(=O)c1c[nH]c2ncc(-c3ccc(C#N)cc3)nc12 [compound 8, 8] | – | 339 | –
7 | CNC(=O)c1c[nH]c2ncc(-c3cccnc3)nc12 [compound 10, 10] | – | 507 | –
8 | CNC(=O)c1c[nH]c2ncc(-c3cccc(CN(C)C)c3)nc12 [compound 11, 11] | – | 206 | –
9 | CNC(=O)c1c[nH]c2ncc(-c3cccc(C(=O)NCCN(C)C)c3)nc12 [compound 12, 12] | – | 62 | –
10 | CNC(=O)c1c[nH]c2ncc(-c3ccc(C(=O)NCCN(C)C)cc3)nc12 [compound 13, 13] | – | 94 | –
11 | CNC(=O)c1c[nH]c2ncc(-c3ccc(N4CCN(C)CC4)cc3)nc12 [compound 14, 14] | 83 | – | microsomal CLint (in vitro [2]; read-out: Cl (human)): 9 µL/min/mg; solubility (physchem): 260 µM; IC50 (CDK1/cyclinB [4]): > 30000 nM
12 | CNC(=O)c1c[nH]c2ncc(-c3ccc(OCCN4CCOCC4)cc3)nc12 [compound 15, 15] | 11 | 191 | –
13 | CNC(=O)c1c[nH]c2ncc(-c3ccc(OCCN4CCN(C)CC4)cc3)nc12 [compound 16, 16] | 18 | 31 | –
14 | CNC(=O)c1c[nH]c2ncc(-c3ccc(OCCN4CCN(C(C)=O)CC4)cc3)nc12 [compound 17, 17] | 7 | 80 | –
15 | CNC(=O)c1c[nH]c2ncc(-c3ccc(OCCN4CCC(OC)CC4)cc3)nc12 [compound 18, 18] | – | – | solubility (physchem): 504 µM
16 | CNC(=O)c1c[nH]c2ncc(-c3ccc(OCCN4CCCC4)cc3)nc12 [compound 19, 19] | 37 | – | –
17 | CNC(=O)c1c[nH]c2ncc(-c3ccc(OCCN4CCCCC4)cc3)nc12 [compound 20, 20] | 12 | – | solubility (physchem): 585 µM
